Experimental data as given in PubChem BioAssay (NCI).
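Interpolation was linear, between the two tested concentrations surrounding the appropriate level; five concentrations were tested over 48 hours in 96-well plates. GI50 is the concentration that inhibits growth by half. TGI denotes the concentration required for complete inhibition of growth.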

Experiments:
Assay in all cases: inhibition of tumour cell growth, NCI panel, 48 h; in the data active = GI50 below about 0.43 µM; inactive = the rest
[1] = system: SNB-19 CNS
[2] = system: SN12C renal
[3] = system: MOLT-4 leukemia
[4] = system: M19-MEL melanoma
[5] = system: SR leukemia
[6] = system: 786-0 renal
[7] = system: IGROV1 ovarian
[8] = system: SNB-75 CNS
[9] = system: CCRF-CEM leukemia
[10] = system: KM12 colon
[11] = system: NCI-H522 lung
[12] = system: NCI-H226 lung
[13] = system: NCI-H460 lung
[14] = system: DMS 273 small cell lung
[15] = system: RPMI-8226 leukemia
[16] = system: KM20L2 colon
[17] = system: K-562 leukemia
[18] = system: TK-10 renal
[19] = system: SK-MEL-28 melanoma
[20] = system: SK-MEL-2 melanoma
[21] = system: HCC-2998 colon
[22] = system: ACHN renal
[23] = system: SF-268 CNS
[24] = system: A549 NSCLC
[25] = system: SK-OV-3 ovarian
[26] = system: A498 renal
[27] = system: OVCAR-8 ovarian
[28] = system: CAKI-1 renal
[29] = system: U251 CNS
[30] = system: NCI-H23 lung
[31] = system: HCT-116 colon
[32] = system: OVCAR-4 ovarian
[33] = system: XF 498 CNS
[34] = system: UACC-62 melanoma
[35] = system: HOP-18 NSCLC
[36] = system: UACC-257 melanoma
[37] = system: EKVX NSCLC
[38] = system: MALME-3M melanoma
[39] = system: UO-31 renal
[40] = system: SK-MEL-5 melanoma
[41] = system: M14 melanoma
[42] = system: SF-295 CNS
[43] = system: HT29 colon
[44] = system: SF-539 CNS
[45] = system: OVCAR-5 ovarian
[46] = system: COLO 205 colon
[47] = system: HCT-15 colon
[48] = system: SNB-78 CNS
[49] = system: DMS 114 small cell lung
[50] = system: RXF 393 renal
[51] = system: LXFL 529 NSCLC
[52] = system: DLD-1 colon
[53] = system: HL-60(TB) leukemia
[54] = system: HOP-62 NSCLC
[55] = system: LOX IMVI melanoma
[56] = system: OVCAR-3 ovarian
[57] = system: SW-620 colon
[58] = system: HOP-92 NSCLC

COC1CC(O[C@H]2CC[C@@]3(C)C(=CCC4(O)C3CCC35C(=O)OC6(C)O[C@@]43CCC65)C2)OC(C)C1O (stereo partly drawn)
> 100 µM: TGI [1] | TGI [2] | TGI [3] | TGI [4] | TGI [5] | TGI [6] | TGI [7] | TGI [8] | TGI [9] | TGI [10] | TGI [11] | TGI [12] | TGI [13] | TGI [14] | TGI [15] | TGI [16] | TGI [17] | TGI [18] | TGI [19] | TGI [20] | TGI [21] | TGI [22] | TGI [23] | TGI [24] | TGI [25] | TGI [26] | TGI [27] | TGI [28] | TGI [29] | TGI [30] | TGI [31] | TGI [32] | TGI [33] | TGI [34] | TGI [35] | TGI [36] | TGI [37] | TGI [38] | TGI [39] | TGI [40] | TGI [41] | TGI [42] | TGI [43] | TGI [44] | TGI [45] | TGI [46] | TGI [47] | TGI [48] | TGI [49] | TGI [50] | TGI [51] | TGI [52] | TGI [53] | TGI [54]

N#C[S-].[Ce+3].c1ccc(-c2ccccn2)nc1.c1ccc(-c2ccccn2)nc1.c1ccc(-c2ccccn2)nc1
49 µM: TGI [42]
69 µM: TGI [7]
24.7 µM: TGI [41]
60.7 µM: TGI [25] | TGI [38]
98.4 µM: TGI [50]
28.7 µM: TGI [39]
65.8 µM: TGI [4]
97.3 µM: TGI [30]
63.1 µM: TGI [12] | TGI [20]
97.6 µM: TGI [18]
33.9 µM: TGI [14]
20.4 µM: TGI [40]
78.8 µM: TGI [49]
64.1 µM: TGI [36]
63.7 µM: TGI [55]
inactive: GI50 [1] 45.6 µM | GI50 [2] 12.8 µM | GI50 [55] 4.2 µM | GI50 [4] 15.4 µM | GI50 [5] 25.7 µM | GI50 [7] 24.5 µM | GI50 [8] 15.2 µM | GI50 [10] 38 µM | GI50 [12] 18 µM | GI50 [13] 13.1 µM | GI50 [14] 11 µM | GI50 [56] 43.1 µM | GI50 [18] 11 µM | GI50 [19] 15.3 µM | GI50 [20] 25.4 µM | GI50 [21] 18.3 µM | GI50 [24] 24.8 µM | GI50 [25] 27 µM | GI50 [27] 13.5 µM | GI50 [28] 10.8 µM | GI50 [29] 13.3 µM | GI50 [30] 26.9 µM | GI50 [31] 30.5 µM | GI50 [57] 38.9 µM | GI50 [32] 13.2 µM | GI50 [34] 20.6 µM | GI50 [35] 4.33 µM | GI50 [36] 21.4 µM | GI50 [37] 8.61 µM | GI50 [38] 23 µM | GI50 [39] 4.46 µM | GI50 [40] 3.78 µM | GI50 [41] 6.24 µM | GI50 [42] 4.72 µM | GI50 [43] 10.6 µM | GI50 [44] 27.3 µM | GI50 [45] 6.15 µM | GI50 [46] 33 µM | GI50 [47] 5.18 µM | GI50 [48] 58.3 µM | GI50 [49] 23.9 µM | GI50 [50] 22.7 µM | GI50 [52] 5.26 µM
91.3 µM: TGI [28]
42.9 µM: TGI [45]
55.2 µM: TGI [34]
46.8 µM: TGI [35]
> 100 µM: TGI [1] | TGI [2] | TGI [5] | TGI [8] | TGI [10] | TGI [13] | TGI [56] | TGI [19] | TGI [21] | TGI [24] | TGI [27] | TGI [29] | TGI [31] | TGI [57] | TGI [32] | TGI [37] | TGI [43] | TGI [44] | TGI [46] | TGI [47] | TGI [48] | TGI [52]

COC(=O)C(/C(=N/N)C(=O)Nc1cc(Cl)ccc1Cl)c1nc2ccc([N+](=O)[O-])cc2[nH]c1=O (stereo not drawn)
> 100 µM: TGI [1] | TGI [2] | TGI [55] | TGI [3] | TGI [5] | TGI [6] | TGI [7] | TGI [9] | TGI [10] | TGI [11] | TGI [12] | TGI [13] | TGI [14] | TGI [15] | TGI [16] | TGI [56] | TGI [58] | TGI [17] | TGI [18] | TGI [19] | TGI [20] | TGI [21] | TGI [22] | TGI [23] | TGI [24] | TGI [25] | TGI [26] | TGI [27] | TGI [29] | TGI [30] | TGI [31] | TGI [57] | TGI [32] | TGI [33] | TGI [34] | TGI [36] | TGI [37] | TGI [38] | TGI [39] | TGI [40] | TGI [41] | TGI [42] | TGI [43] | TGI [44] | TGI [45] | TGI [46] | TGI [47] | TGI [48] | TGI [49] | TGI [51] | TGI [53] | TGI [54]

Cc1ccccc1SC(/C=C/NNC1=NC(c2ccccc2)C(c2ccccc2)=NN1)c1ccccc1 (stereo not drawn)
60.4 µM: TGI [33]
42.8 µM: TGI [22]
64.2 µM: TGI [26]
27.7 µM: TGI [58]
52 µM: TGI [12]
30 µM: TGI [28]
40 µM: TGI [27]
31.2 µM: TGI [50]
46.7 µM: TGI [24]
9.16 µM: TGI [32]
75.1 µM: TGI [38]
31.7 µM: TGI [56]
58.7 µM: TGI [23]
20.8 µM: TGI [8]
> 100 µM: TGI [1] | TGI [2] | TGI [55] | TGI [3] | TGI [4] | TGI [10] | TGI [11] | TGI [13] | TGI [14] | TGI [15] | TGI [16] | TGI [17] | TGI [21] | TGI [57] | TGI [34] | TGI [36] | TGI [37] | TGI [40] | TGI [43] | TGI [45] | TGI [46] | TGI [47] | TGI [52]
49.4 µM: TGI [54]
80.2 µM: TGI [7]
48.6 µM: TGI [39]
45.3 µM: TGI [20] | TGI [25]
87.6 µM: TGI [41]
78.4 µM: TGI [49]
27.6 µM: TGI [44]
64.7 µM: TGI [29]
73.9 µM: TGI [48]
25.9 µM: TGI [6]
43 µM: TGI [19]
57.7 µM: TGI [42]
43.2 µM: TGI [18]
50.2 µM: TGI [30]
94.4 µM: TGI [9]

CCCCN(C)CC(C(C)=O)C(c1ccccc1)c1c(O)c2ccccc2oc1=O (stereo not drawn)
> 100 µM: TGI [1] | TGI [2] | TGI [55] | TGI [3] | TGI [4] | TGI [5] | TGI [6] | TGI [7] | TGI [8] | TGI [9] | TGI [10] | TGI [11] | TGI [12] | TGI [13] | TGI [14] | TGI [15] | TGI [16] | TGI [56] | TGI [17] | TGI [18] | TGI [19] | TGI [20] | TGI [22] | TGI [23] | TGI [24] | TGI [25] | TGI [26] | TGI [27] | TGI [28] | TGI [29] | TGI [30] | TGI [31] | TGI [57] | TGI [32] | TGI [33] | TGI [34] | TGI [35] | TGI [36] | TGI [37] | TGI [38] | TGI [39] | TGI [40] | TGI [41] | TGI [42] | TGI [43] | TGI [44] | TGI [45] | TGI [46] | TGI [47] | TGI [48] | TGI [49] | TGI [50] | TGI [51] | TGI [52] | TGI [53] | TGI [54]

N=C1c2ccccc2C(=O)c2c(NCCNCCO)ccc(O)c21
16.3 µM: TGI [44]
19.3 µM: TGI [40]
35.8 µM: TGI [38]
49.3 µM: TGI [8]
46.9 µM: TGI [37]
15.1 µM: TGI [13] | TGI [49]
84.7 µM: TGI [45]
22 µM: TGI [16]
18 µM: TGI [50]
25.7 µM: TGI [30]
27.6 µM: TGI [53]
15.8 µM: TGI [57]
17.3 µM: TGI [4]
24.6 µM: TGI [15]
57 µM: TGI [22]
54.8 µM: TGI [35]
83.3 µM: TGI [32]
44.7 µM: TGI [12]
32.7 µM: TGI [39]
22.5 µM: TGI [54]
> 38.7 µM: TGI [6]
15 µM: TGI [31]
53.9 µM: TGI [9]
33.8 µM: TGI [26]
> 71.2 µM: TGI [58]
> 100 µM: TGI [43]
84.8 µM: TGI [1]
27.8 µM: TGI [51]
> 62.3 µM: TGI [18]
5.32 µM: TGI [5]
> 28.8 µM: TGI [17]
46.8 µM: TGI [7]
> 63 µM: TGI [47]
24.8 µM: TGI [41]
> 76.2 µM: TGI [27]
50.2 µM: TGI [25]
22.6 µM: TGI [24]
15.6 µM: TGI [55]
> 60 µM: TGI [48]
13.3 µM: TGI [11]
> 40.5 µM: TGI [42]
26.5 µM: TGI [28]
> 51.6 µM: TGI [36]
18.9 µM: TGI [14] | TGI [29] | TGI [34]
52.7 µM: TGI [56]
31.7 µM: TGI [2]
23.2 µM: TGI [19]
33.5 µM: TGI [20]
16.9 µM: TGI [46]
10.8 µM: TGI [3]
14.2 µM: TGI [23]
33.1 µM: TGI [10]
21.4 µM: TGI [21]
22.3 µM: TGI [52]
